In patent US20100137222A1, “Basic Peptides and Their Use as Combined Antibacterial-Antifungine Agents” (NOVABIOTICS LIMITED, priority 2007, published 2010):
Where two headings read alike, the source gives them in different places. Marks after values point to notes of the source that are not given here. No end group written: not given here.

Experiments:
P. acnes DSM1897 = format: cell-based, Propionibacterium acnes
Experimental: Broth Dilution Antibacterial Susceptibility Testing
The sensitivity of relevant bacterial strains to peptides was determined using Clinical Laboratory Standard Institute (CLSI; formerly NCCLS) Approved Standards. Bacterial susceptibility was tested using “Methods for Dilution Antimicrobial Susceptibility Tests for Bacteria That Grow […]; Approved Standard—Seventh Edition M7-A7”

M. furfur DSM6170 = format: cell-based, Malassezia furfur
Experimental: Broth Dilution Antifungal Susceptibility Testing
The sensitivity of relevant fungal strains to peptides was determined using Clinical Laboratory Standard Institute (CLSI; formerly NCCLS) Approved Standards. Yeast susceptibility was tested using “Reference Method for Broth Dilution Antifungal Susceptibility Testing of Yeasts; Approved Standard—Second Edition M27-A”.

[1] = Table 3, starred values (*value in mg/ml)
[2] = Table 1, starred values (*value in mM)

Row | Molecule | Antimicrobial Activity (MIC) P. acnes DSM1897 (P. acnes DSM1897; DSM1897) | other results
1 | N=C(N)NCCC[C@H](NC(=O)[C@H](CCCNC(=N)N)NC(=O)[C@H](CCCNC(=N)N)NC(=O)[C@H](CCCNC(=N)N)NC(=O)[C@H](CCCNC(=N)N)NC(=O)[C@H](CCCNC(=N)N)NC(=O)[C@H](CCCNC(=N)N)NC(=O)[C@H](CCCNC(=N)N)NC(=O)[C@H](CCCNC(=N)N)NC(=O)[C@H](CCCNC(=N)N)NC(=O)[C@@H](N)CCCNC(=N)N)C(=O)O [NP317] | <0.0156 mM | Antimicrobial Activity (MIC) M. furfur DSM6170 (M. furfur DSM6170; DSM6170): <0.0156 mM; MIC against Malassezia furfur DSM6170 (M. furfur DSM6170; Table 3, unstarred values): <0.0156 mM
2 | N=C(N)NCCC[C@H](NC(=O)[C@H](CCCNC(=N)N)NC(=O)[C@H](CCCNC(=N)N)NC(=O)[C@H](CCCNC(=N)N)NC(=O)[C@H](CCCNC(=N)N)NC(=O)[C@H](CCCNC(=N)N)NC(=O)[C@H](CCCNC(=N)N)NC(=O)[C@H](CCCNC(=N)N)NC(=O)[C@H](CCCNC(=N)N)NC(=O)[C@H](CCCNC(=N)N)NC(=O)[C@H](CCCNC(=N)N)NC(=O)[C@H](CCCNC(=N)N)NC(=O)[C@@H](N)CCCNC(=N)N)C(=O)O [NP337] | 0.0025 mM | Antimicrobial Activity (MIC) M. furfur DSM6170 (M. furfur DSM6170; DSM6170): 0.03125 mM
3 | CC(=O)N[C@@H](CCCNC(=N)N)C(=O)N[C@@H](CCCNC(=N)N)C(=O)N[C@@H](CCCNC(=N)N)C(=O)N[C@@H](CCCNC(=N)N)C(=O)N[C@@H](CCCNC(=N)N)C(=O)N[C@@H](CCCNC(=N)N)C(=O)N[C@@H](CCCNC(=N)N)C(=O)N[C@@H](CCCNC(=N)N)C(=O)N[C@@H](CCCNC(=N)N)C(=O)N[C@@H](CCCNC(=N)N)C(=O)N[C@@H](CCCNC(=N)N)C(=O)N[C@@H](CCCNC(=N)N)C(=O)N[C@@H](CCCNC(=N)N)C(N)=O [NP338] | 0.005 mM | Antimicrobial Activity (MIC) M. furfur DSM6170 (M. furfur DSM6170; DSM6170): <0.0156 mM; MIC against Malassezia furfur DSM6170 (M. furfur DSM6170; Table 3, unstarred values): <0.0156 mM
4 | N=C(N)NCCC[C@@H](N)C(=O)N[C@H](CCCNC(=N)N)C(=O)N[C@H](CCCNC(=N)N)C(=O)N[C@H](CCCNC(=N)N)C(=O)N[C@H](CCCNC(=N)N)C(=O)N[C@H](CCCNC(=N)N)C(=O)N[C@H](CCCNC(=N)N)C(=O)N[C@H](CCCNC(=N)N)C(=O)N[C@H](CCCNC(=N)N)C(=O)N[C@H](CCCNC(=N)N)C(=O)N[C@H](CCCNC(=N)N)C(=O)N[C@H](CCCNC(=N)N)C(=O)N[C@H](CCCNC(=N)N)C(=O)O [NP339, dRdRdRdRdRdRdRdRdRdRdRdRdR] | 0.02 mM | Antimicrobial Activity (MIC) M. furfur DSM6170 (M. furfur DSM6170; DSM6170): 0.008 mM
5 | CC(=O)N[C@H](CCCNC(=N)N)C(=O)N[C@H](CCCNC(=N)N)C(=O)N[C@H](CCCNC(=N)N)C(=O)N[C@H](CCCNC(=N)N)C(=O)N[C@H](CCCNC(=N)N)C(=O)N[C@H](CCCNC(=N)N)C(=O)N[C@H](CCCNC(=N)N)C(=O)N[C@H](CCCNC(=N)N)C(=O)N[C@H](CCCNC(=N)N)C(=O)N[C@H](CCCNC(=N)N)C(=O)N[C@H](CCCNC(=N)N)C(=O)N[C@H](CCCNC(=N)N)C(=O)N[C@H](CCCNC(=N)N)C(N)=O [NP340, Ac-dRdRdRdRdRdRdRdRdRdRdRdRdR-NH2] | 0.02 mM | Antimicrobial Activity (MIC) M. furfur DSM6170 (M. furfur DSM6170; DSM6170): 0.008 mM
6 | (H)n, n = 32-161, HCl salt (5-25 kDa) [NP131] |  | MIC against Malassezia furfur DSM6170 (M. furfur DSM6170; [1]): 0.0625* mg/ml
7 | (H)n, n = >32, HCl salt (>5 kDa) [NP132] |  | MIC against Malassezia furfur DSM6170 (M. furfur DSM6170; [1]): 0.0625* mg/ml
8 | (I-K)n, n = 7-27, HBr salt [NP106] |  | Antimicrobial Activity (MIC) P. acnes DSM1897 (P. acnes DSM1897; Table 1, unstarred values): 0.125 mg/mL; Antimicrobial Activity (MIC) M. furfur DSM6170 (M. furfur DSM6170; Table 1, unstarred values): 0.5 mg/mL
9 | (I-K)n, n = 100-200, HCl salt [NP101] |  | Antimicrobial Activity (MIC) P. acnes DSM1897 (P. acnes DSM1897; Table 1, unstarred values): 0.1 mg/mL
10 | (R)n, n = 28-86, HCl salt (5-15 kDa) [NP121] |  | MIC against Malassezia furfur DSM6170 (M. furfur DSM6170; [1]): 0.25* mg/ml
11 | (R)n, n = 86-402, HCl salt (15-70 kDa) [NP122] |  | MIC against Malassezia furfur DSM6170 (M. furfur DSM6170; [1]): 0.25* mg/ml
12 | KKKKK [NP343, KKKKK] | >10* mM | 
13 | KKKKKKK [NP344, KKKKKKK] | >10* mM | Antimicrobial Activity (MIC) M. furfur DSM6170 (M. furfur DSM6170; DSM6170): 1* mM
14 | KKKKKKKKK [NP345] | 2.5* mM | 
15 | KKKKKKKKKKKKKKK [NP348] |  | Antimicrobial Activity (MIC) P. acnes DSM1897 (P. acnes DSM1897; [2]): 0.0625* mM; Antimicrobial Activity (MIC) M. furfur DSM6170 (M. furfur DSM6170; [2]): 0.25* mM
16 | PKTKAKAKAKKGKGKD [NP336] | >2 mM | 
17 | RRRRVVRRRR [NP310] | 0.5 mM | Antimicrobial Activity (MIC) M. furfur DSM6170 (M. furfur DSM6170; DSM6170): 0.5 mM; MIC against Malassezia furfur DSM6170 (M. furfur DSM6170; Table 3, unstarred values): 0.5 mM
18 | RRRVRRR [NP306, RRRVRRR] | 2 mM | 
19 | RRRVVRRR [NP308] | >2 mM | 
20 | RRVRVRR [NP307, RRVRVRR] | >2 mM | 
21 | RRVVR [NP302, RRVVR] | >2 mM | 
22 | RRWRWRR [NP326, RRWRWRR] | 0.25 mM | 
23 | RRWWRR [NP324, RRWWRR] | 0.25 mM | 

The next lines start with results.

Row | Antimicrobial Activity (MIC) P. acnes DSM1897 (P. acnes DSM1897; DSM1897) | Molecule | other results
24 | >2 mM | GKKEKPEKKVKK [NP331] | 
25 | >2 mM | KKKDKVKK [NP334] | 
26 | >2 mM | KKKKKEGKKQEKMLD [NP333] | 
27 | >2 mM | KLTKPKPQAESKKKKK [NP332] | 
28 | >2 mM | KVRQGTLKKAR [NP335] | 
29 | 2 mM | RRRWRRR [NP325, RRRWRRR] | 
30 | 0.125 mM | RRRWWRRR [NP327] | 
31 | >2 mM | RRVRR [NP303, RRVRR] | 
32 | 1 mM | RRVRRVRR [NP309] | 
33 | >2 mM | RRVRVR [NP304, RRVRVR] | 
34 | >2 mM | RRVVRR [NP305, RRVVRR] | 
35 | 2 mM | RRVVRRVVRR [NP311] | 
36 | 2 mM | RRWRR [NP322, RRWRR] | 
37 | 0.5 mM | RRWRRWRR [NP328] | 
38 | 0.5 mM | RRWRWR [NP323, RRWRWR] | 
39 | 1 mM | RRWWR [NP321, RRWWR] | 
40 | >2 mM | RVRVR [NP301, RVRVR] | 
41 | 1 mM | RWRWR [NP320, RWRWR] | 
